Assay results from patent US6569903B2, “Ophthalmic compositions” (Rohto Pharmaceutical Co., Ltd., priority 1999, dated 2003).
Where a name gives a salt, the structure may show the parent alone.

Legend:
[1] = tested on: Japanese albino strain male rabbits; assay: Tear secretion promoting action of eye drops (Test Example 1); assay type: in vivo, rabbit; conditions: 0.1 w/v % eye drops, 50 μl instilled into one eye, vs basal secretion amount
Procedure: Using Japanese albino strain male rabbits, eye drops containing adrenergic β receptor agonists were examined for their tear secretion promoting actions.
Prior to use, each adrenergic β receptor agonist was dissolved in a phosphate buffer solution to prepare a 0.1 w/v % solution, which was adjusted to the pH ranging 6.0 to 7.5. Compounds used in this experiment are shown below. The phosphate buffer solution served as control.
Six rabbits (12 weeks old, weighing 2.0 to 2.5 kg) were used in each group. A test solution (50 μl) was instilled into one eye of the rabbit, and amounts of tears secreted were measured for 5 minutes from 15 to 10 min prior to the instillation of the test solution, for 5 minutes from 5 to 10 min and for 5 minutes from 20 to 25 min after the instillation, three times in total, by the following method. A local anesthetic, 0.4 w/v % oxybuprocaine hydrochloride solution (Santen Pharmaceutical) (50 μl) was instilled into one eye of the rabbit, 5 min later the remaining eye drops and tears were once soaked up using a water absorbing paper, and then a previously weighed filter paper (5×35 mm) was inserted in the lower eyelid area. Five minutes later, the filter paper was recovered, weighed and the increment in weight was taken as the amount of secreted tears. With the amount of secreted tears prior to the instillation of a test solution taken as a basal secretion amount, ratios of increases in the amount of secreted tears to the basal secretion amount were used as the rate of increase in the tear secretion (%).

[2] = tested on: Japanese albino strain male rabbits; assay: Tear protein secretion promoting action of eye drops (Test Example 2); assay type: in vivo, rabbit; conditions: 0.1 w/v % eye drops, 50 μl instilled into one eye, vs basal concentration
Procedure: Using Japanese albino strain male rabbits, eye drops containing adrenergic β receptor agonists were examined for their actions to promote the tear protein secretion.
Prior to use, each adrenergic β receptor agonist was dissolved in a phosphate buffer solution to prepare 0.1 w/v % solution, and adjusted to the pH ranging 6.0 to 7.5. Compounds and compositions of eye drops used in this experiment are shown below using the phosphate buffer solution as control.
Six rabbits (12 weeks old, weighing 2.0 to 2.5 kg) were used in each group. A test solution (50 μl) was instilled into one eye of the rabbit, and protein concentrations in tears were measured for 5 minutes from 15 to 10 min prior to the instillation of the test solution, for 5 minutes from 5 to 10 min and for 5 minutes from 20 to 25 min after the instillation, three times in total, using the following method. A local anesthetic, 0.4 w/v % oxybuprocaine hydrochloride solution (Santen Pharmaceutical) (50 μl) was instilled into one eye of the rabbit, 5 min later the remaining eye drops and tears were once soaked up using a water absorbing paper, and then a previously weighed filter paper (5×35 mm) was inserted in the lower eyelid area. Five minutes later, the filter paper was recovered, weighed and the increment in weight was taken as the amount of secreted tears. Immediately after measuring the amount of secreted tears, the filter paper thus recovered was placed in a 1.5-ml test tube, 1 ml of the phosphate buffer solution (pH 7.4) was added thereto, and the test tube was stirred for 30 s. After the removal of the filter paper followed by the centrifugation of the solution at 3,000 rpm for 5 min, a stain reagent of Bio-Rad protein assay kit was added to the supernatant to measure the amount of protein and calculate the total amount of protein in the filter paper. From the total amount of protein and that of secreted tears, the protein concentration in tears was calculated.
With the protein concentration in tears prior to the instillation of a test solution taken as a basal protein concentration, ratios of increases in respective protein concentrations relative to the basal protein concentration were used as the rate of increase in protein concentration in tears (%)

[3] = tested on: Japanese albino strain male rabbits; assay: Tear secretion after systemic (ear vein) administration (Test Example 3); assay type: in vivo, rabbit; conditions: for Rate of increase in tear secretion (%): 50 μg/rabbit into the ear vein
Procedure: (§1) Using Japanese albino strain male rabbits, injections containing selective adrenergic β2 receptor agonists were examined for their actions to promote the tear secretion and the protein secretion in tears.
(§2) Prior to use, clenbuterol hydrochloride was dissolved in a physiological saline (concentration 50 μg/ml), and adjusted to the pH in the range 6.0 to 7.5. The physiological saline was used as control.
(§3) Six rabbits (11 to 12 weeks old, weighing 2.4 to 2.6 kg) were used in each group. The test solution (50 μg/rabbit) was administered into the ear vein, and amounts of tears secreted were measured 15 to 10 min prior to the administration of the test solution, 5 to 10 min, 20 to 25 min, 40 to 45 min, 60 to 65 min and 120 to 125 min after the administration, six times in total, by the following method. A local anesthetic, 0.4 w/v % oxybuprocaine hydrochloride solution (Santen Pharmaceutical) (50 μl) was instilled into one eye of a rabbit, 5 min later the remaining eye drops and tears were once soaked up using a water absorbing paper, and then a previously weighed filter paper (5×35 mm) was inserted in the lower eyelid area. Five minutes later, the filter paper was recovered, weighed and the increment in weight was taken as the amount of secreted tears. After measuring the amount of secreted tears, the filter paper thus recovered was placed in a 1.5-ml test tube, 1 ml of the phosphate buffer solution (pH 7.4) was added thereto, and the test tube was vortexed for 30 s. After the removal of the filter paper, followed by the centrifugation at 3,000 rpm for 5 min, a stain reagent of Bio-Rad protein assay kit was added to the supernatant to measure the amount of protein and calculate a total amount of protein in the filter paper. From the total amount of protein and that of secreted tears, the protein concentration in tears was calculated. With the amount of secreted tears prior to the administration of a test solution taken as the basal secretion amount, ratios of increases in the secreted tears to the basal secretion amount were used as the rate of increase in the tear secretion (%). In addition, with the protein concentration in tears prior to the administration of a test solution taken as the basal protein concentration, ratios of increases in respective protein concentrations relative to the basal protein concentration were used as the rate of increase in protein concentration in tears (%).

[4] = tested on: Japanese albino strain male rabbits; assay: Protein concentration in tears after systemic (ear vein) administration (Test Example 3); assay type: in vivo, rabbit; conditions: for Rate of increase in protein concentration in tears (%): 50 μg/rabbit into the ear vein
Procedure: as §1, §2, §3

β2 adrenergic receptor = target: T1, β2 adrenergic receptor (Cavia porcellus, UniProt Q8K4Z4); conditions: cited from earlier work
T1 construct: a relaxation of smooth muscle (EC50) in an excised trachea or uterus; from tissue; host or cells: excised trachea (tracheal smooth muscle)
T1 sequence (Q8K4Z4 whole entry): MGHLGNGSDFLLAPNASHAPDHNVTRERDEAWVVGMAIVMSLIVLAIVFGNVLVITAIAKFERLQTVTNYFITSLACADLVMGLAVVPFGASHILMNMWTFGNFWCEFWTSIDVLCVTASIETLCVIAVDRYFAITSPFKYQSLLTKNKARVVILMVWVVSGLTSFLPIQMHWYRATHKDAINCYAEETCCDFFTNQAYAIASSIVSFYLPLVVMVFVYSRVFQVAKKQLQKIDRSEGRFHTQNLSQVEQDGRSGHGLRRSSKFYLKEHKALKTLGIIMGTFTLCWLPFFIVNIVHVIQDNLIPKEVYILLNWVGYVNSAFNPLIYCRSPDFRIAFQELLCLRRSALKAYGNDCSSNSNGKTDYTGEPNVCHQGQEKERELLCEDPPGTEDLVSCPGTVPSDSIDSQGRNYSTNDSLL

[5] = for 5 minutes from 5 to 10 min after instillation
[6] = for 5 minutes from 20 to 25 min after instillation
[7] = 120-125 min after administration
[8] = intravenous administration, result in words

Compound | Rate of increase in tear secretion [1, 5] [%] | Rate of increase in tear secretion [1, 6] [%] | Rate of increase in tear protein concentration [2, 5] [%] | Rate of increase in tear protein concentration [2, 6] [%] | Relative specificity to the tracheal smooth muscle, higher than that of isoproterenol (β2 adrenergic receptor) | other results
CC(C)(C)NCC(O)c1cc(Cl)c(N)c(Cl)c1 (stereo not drawn) [Clenbuterol hydrochloride, clenbuterol hydrochloride] | 36 | 29 | 16 | 53 | about 7000 times | Rate of increase in tear secretion (%) ([3]; 5-10 min after administration): 155%; Rate of increase in tear secretion (%) ([3]; 20-25 min after administration): 146%; Rate of increase in tear secretion (%) ([3]; 40-45 min after administration): 133%; Rate of increase in tear secretion (%) ([3]; 60-65 min after administration): 68%; Rate of increase in tear secretion (%) [3, 7]: 58%; Amount of tear secretion [3, 8]: significant increases; Rate of increase in protein concentration in tears (%) ([4]; 5-10 min after administration): 139%; Rate of increase in protein concentration in tears (%) ([4]; 20-25 min after administration): 148%; Rate of increase in protein concentration in tears (%) ([4]; 40-45 min after administration): 179%; Rate of increase in protein concentration in tears (%) ([4]; 60-65 min after administration): 188%; Rate of increase in protein concentration in tears (%) [4, 7]: 171%; Protein concentration in tears [4, 8]: significant increases
CC(C)(C)NCC(O)c1ccc(O)c(CO)c1 (stereo not drawn) [salbutamol] |  |  |  |  | about 30 times | 
CC(C)(C)NCC(O)c1ccc(O)c(CO)n1 (stereo not drawn) [pirbuterol] |  |  |  |  | about 260 times | 
CC(CCc1ccc(O)cc1)NCCc1ccc(O)c(O)c1 (stereo not drawn) [Dobutamine, dobutamine hydrochloride] | 8 | −29 | 9 | −19 |  | 
CC(Cc1ccc(O)cc1)NCC(O)c1cc(O)cc(O)c1 (stereo not drawn) [Fenoterol hydrobromide, fenoterol hydrobromide] | 144 | 49 | 16 | 43 | about 20 times | 
CCC(NC(C)C)C(O)c1ccc(O)c2[nH]c(=O)ccc12 (stereo not drawn) [Procaterol hydrochloride, procaterol hydrochloride] | 118 | 43 | 76 | 109 | about 2000 times | 
